Laboratory results: ChEMBL document CHEMBL1201862, “PubChem BioAssay data set” (2004)
The source made the active and inactive calls.

Columns and labels:
[1] = target: Voltage-gated inwardly rectifying potassium channel KCNH2 (Homo sapiens, UniProt Q12809); conditions: Potency;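 note: confirmatory quantitative high-throughput screen measuring inhibition of hERG channel activity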
HEK293 = assay: cells; type: functional, cell-based; conditions: Homo sapiens
[2] = target: T1, Nuclear receptor subfamily 0 group B member 1 (Homo sapiens, UniProt P51843); assay: Luminescence-based cell-based high throughput dose response assay for inhibitors of the orphan nuclear receptor subfamily 0, group B, member 1 (DAX1; NR0B1). [Related pubchem assays (depositor defined):AID504766, AID504790]; type: functional
T1 sequence (P51843 whole entry): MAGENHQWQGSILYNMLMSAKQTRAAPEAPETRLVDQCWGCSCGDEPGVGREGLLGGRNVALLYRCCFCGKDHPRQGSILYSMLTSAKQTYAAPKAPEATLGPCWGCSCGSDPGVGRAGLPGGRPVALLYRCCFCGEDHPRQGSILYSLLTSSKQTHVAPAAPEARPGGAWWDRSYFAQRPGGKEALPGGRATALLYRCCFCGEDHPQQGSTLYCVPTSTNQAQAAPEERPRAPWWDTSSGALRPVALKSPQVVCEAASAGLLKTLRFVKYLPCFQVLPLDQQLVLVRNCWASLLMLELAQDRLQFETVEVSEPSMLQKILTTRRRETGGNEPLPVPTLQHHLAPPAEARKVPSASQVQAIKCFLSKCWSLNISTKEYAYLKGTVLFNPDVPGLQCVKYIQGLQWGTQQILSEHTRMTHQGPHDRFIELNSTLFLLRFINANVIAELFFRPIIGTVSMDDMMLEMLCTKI

HeLa = assay: ATP-based viability loss in HeLa cells – cell-based, CellTiter-Glo luminescence, cherry-pick samples, cytotoxicity control for MITF activator project, dose response (AID 540259); type: functional; conditions: Homo sapiens
Coagulation factor XII = target: T2, Coagulation factor XII (Homo sapiens, UniProt P00748); type: functional;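 note: activated factor XIIa alpha cleaving a fluorogenic AMC peptide substrate; inhibitor potency from loss of enzyme activity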
T2 sequence (P00748 whole entry): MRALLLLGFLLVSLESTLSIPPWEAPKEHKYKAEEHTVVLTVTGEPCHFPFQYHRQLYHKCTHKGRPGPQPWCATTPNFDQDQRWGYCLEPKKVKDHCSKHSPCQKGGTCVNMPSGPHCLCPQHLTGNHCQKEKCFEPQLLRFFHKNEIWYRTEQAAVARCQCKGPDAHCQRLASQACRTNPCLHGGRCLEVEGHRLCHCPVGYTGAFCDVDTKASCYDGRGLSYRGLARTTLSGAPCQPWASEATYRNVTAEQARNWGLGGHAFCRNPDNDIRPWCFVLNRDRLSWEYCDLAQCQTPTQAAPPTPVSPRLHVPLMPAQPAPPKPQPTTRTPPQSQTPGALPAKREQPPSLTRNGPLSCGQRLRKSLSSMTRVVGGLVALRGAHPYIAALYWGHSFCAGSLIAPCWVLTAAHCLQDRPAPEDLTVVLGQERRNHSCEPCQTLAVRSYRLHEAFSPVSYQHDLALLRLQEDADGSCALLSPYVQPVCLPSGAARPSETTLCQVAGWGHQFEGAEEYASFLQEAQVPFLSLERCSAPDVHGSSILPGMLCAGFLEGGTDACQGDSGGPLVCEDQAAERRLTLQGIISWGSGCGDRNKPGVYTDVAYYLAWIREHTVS

[3] = target: T3, Type-1 angiotensin II receptor (Homo sapiens, UniProt P30556); assay: agonist activity at AGTR1 – cell-based, uHTS hits, selectivity assay for APJ receptor agonist project, dose response (AID 488865); type: functional;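 note: beta-arrestin recruitment to AT1 measured by enzyme fragment complementation luminescence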
T3 sequence (P30556 whole entry): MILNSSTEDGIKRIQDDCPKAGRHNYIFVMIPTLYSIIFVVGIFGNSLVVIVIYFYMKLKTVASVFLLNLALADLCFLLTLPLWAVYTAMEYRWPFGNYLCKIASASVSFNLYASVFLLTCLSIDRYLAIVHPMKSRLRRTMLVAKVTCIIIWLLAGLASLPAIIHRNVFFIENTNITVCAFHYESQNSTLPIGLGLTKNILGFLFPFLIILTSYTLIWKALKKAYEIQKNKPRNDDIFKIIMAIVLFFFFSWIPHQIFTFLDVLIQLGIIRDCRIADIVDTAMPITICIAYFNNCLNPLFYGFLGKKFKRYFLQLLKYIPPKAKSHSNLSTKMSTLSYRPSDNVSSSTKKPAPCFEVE

Cytochrome P450 2D6 = Cytochrome P450 2D6 (Homo sapiens, UniProt P10635);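 note: CYP2D6 member of a cytochrome P450 panel assay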
Cytochrome P450 1A2 = target: T4, Cytochrome P450 1A2 (Homo sapiens, UniProt P05177);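 note: PubChem cytochrome P450 panel assay, CYP1A2 panel member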
T4 sequence (P05177 whole entry): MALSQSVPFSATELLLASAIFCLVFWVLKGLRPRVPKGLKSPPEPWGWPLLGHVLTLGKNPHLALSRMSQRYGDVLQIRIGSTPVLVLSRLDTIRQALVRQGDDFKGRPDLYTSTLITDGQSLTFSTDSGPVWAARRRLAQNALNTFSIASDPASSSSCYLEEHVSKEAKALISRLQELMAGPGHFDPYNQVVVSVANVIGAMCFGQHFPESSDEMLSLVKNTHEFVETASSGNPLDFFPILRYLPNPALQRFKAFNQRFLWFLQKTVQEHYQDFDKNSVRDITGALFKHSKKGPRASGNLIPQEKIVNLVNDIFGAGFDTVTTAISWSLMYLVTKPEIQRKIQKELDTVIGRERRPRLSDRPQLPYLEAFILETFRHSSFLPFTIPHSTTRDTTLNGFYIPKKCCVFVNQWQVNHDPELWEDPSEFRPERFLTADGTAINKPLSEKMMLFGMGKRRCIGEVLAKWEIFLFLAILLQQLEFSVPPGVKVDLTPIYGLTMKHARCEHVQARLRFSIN

Cytochrome P450 3A4 = Cytochrome P450 3A4 (Homo sapiens, UniProt P08684);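 note: CYP3A4 tested as one member of a cytochrome P450 panel screen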
Hexokinase-1 = Hexokinase-1 (Homo sapiens, UniProt P19367); assay: SAR analysis of small molecule inhibitors of hexokinase domain containing I (HKDC1) in the hexokinase 1 selectivity assay. [Related pubchem assays (depositor defined):AID493160, AID493190]; type: functional
Hexokinase HKDC1 = Hexokinase HKDC1 (Homo sapiens, UniProt Q2TB90); assay: SAR analysis of small molecule inhibitors of hexokinase domain containing I (HKDC1). [Related pubchem assays (depositor defined):AID493160, AID493190]; type: functional
[4] = target: T5, Short transient receptor potential channel 4 (Mus musculus, UniProt Q9QUQ5); assay: calcium entry via TRPC4 opening agents – cell-based, HEK293 TRPC4/mu-opioid, Fluo-4 calcium, dose response (AID 434937); type: functional
T5 sequence (Q9QUQ5 whole entry): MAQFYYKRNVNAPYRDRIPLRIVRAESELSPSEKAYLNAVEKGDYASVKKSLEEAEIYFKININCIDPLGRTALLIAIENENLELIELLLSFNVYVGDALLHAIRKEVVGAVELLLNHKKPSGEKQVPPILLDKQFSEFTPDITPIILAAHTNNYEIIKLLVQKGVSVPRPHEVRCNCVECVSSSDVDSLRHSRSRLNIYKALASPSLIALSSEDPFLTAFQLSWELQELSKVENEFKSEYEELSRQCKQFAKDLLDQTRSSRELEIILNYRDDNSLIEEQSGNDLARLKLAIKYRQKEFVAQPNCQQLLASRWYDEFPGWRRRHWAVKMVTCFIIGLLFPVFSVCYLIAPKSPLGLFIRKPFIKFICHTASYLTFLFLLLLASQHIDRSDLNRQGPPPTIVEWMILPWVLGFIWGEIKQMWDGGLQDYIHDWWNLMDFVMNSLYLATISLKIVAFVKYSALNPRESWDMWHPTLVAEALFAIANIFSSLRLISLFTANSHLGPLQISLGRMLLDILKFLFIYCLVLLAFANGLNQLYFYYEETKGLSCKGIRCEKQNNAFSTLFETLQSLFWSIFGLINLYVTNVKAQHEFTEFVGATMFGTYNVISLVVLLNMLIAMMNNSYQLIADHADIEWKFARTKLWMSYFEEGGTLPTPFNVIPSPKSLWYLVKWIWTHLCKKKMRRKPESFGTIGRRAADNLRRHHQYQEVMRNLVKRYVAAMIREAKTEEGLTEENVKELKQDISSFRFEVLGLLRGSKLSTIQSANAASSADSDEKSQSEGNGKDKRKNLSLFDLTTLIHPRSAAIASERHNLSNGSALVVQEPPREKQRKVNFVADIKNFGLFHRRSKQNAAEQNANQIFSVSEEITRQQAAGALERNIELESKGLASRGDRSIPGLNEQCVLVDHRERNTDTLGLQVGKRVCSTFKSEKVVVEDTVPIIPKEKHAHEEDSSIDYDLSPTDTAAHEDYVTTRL

Fatty acid synthase [5] = target: T6, Fatty acid synthase (Homo sapiens, UniProt P49327); assay: inhibition of human FAS-TE enzyme activity – biochemical, endpoint fluorescence intensity, uHTS hits, dose response (AID 624327); type: functional;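 note: fluorescence from hydrolysis of an O-methyl fluorescein acyl ester substrate by the enzyme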
Fatty acid synthase [6] = target: T6, Fatty acid synthase; assay: inhibition of human FAS-TE enzyme activity – biochemical, kinetic fluorescence intensity, dose response (AID 624326); type: functional;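 note: rate of fluorescence rise from hydrolysis of a fluorogenic O-methyl fluorescein ester substrate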

Chain of Hexokinase HKDC1 (Q2TB90 whole entry, the tested form may be a part): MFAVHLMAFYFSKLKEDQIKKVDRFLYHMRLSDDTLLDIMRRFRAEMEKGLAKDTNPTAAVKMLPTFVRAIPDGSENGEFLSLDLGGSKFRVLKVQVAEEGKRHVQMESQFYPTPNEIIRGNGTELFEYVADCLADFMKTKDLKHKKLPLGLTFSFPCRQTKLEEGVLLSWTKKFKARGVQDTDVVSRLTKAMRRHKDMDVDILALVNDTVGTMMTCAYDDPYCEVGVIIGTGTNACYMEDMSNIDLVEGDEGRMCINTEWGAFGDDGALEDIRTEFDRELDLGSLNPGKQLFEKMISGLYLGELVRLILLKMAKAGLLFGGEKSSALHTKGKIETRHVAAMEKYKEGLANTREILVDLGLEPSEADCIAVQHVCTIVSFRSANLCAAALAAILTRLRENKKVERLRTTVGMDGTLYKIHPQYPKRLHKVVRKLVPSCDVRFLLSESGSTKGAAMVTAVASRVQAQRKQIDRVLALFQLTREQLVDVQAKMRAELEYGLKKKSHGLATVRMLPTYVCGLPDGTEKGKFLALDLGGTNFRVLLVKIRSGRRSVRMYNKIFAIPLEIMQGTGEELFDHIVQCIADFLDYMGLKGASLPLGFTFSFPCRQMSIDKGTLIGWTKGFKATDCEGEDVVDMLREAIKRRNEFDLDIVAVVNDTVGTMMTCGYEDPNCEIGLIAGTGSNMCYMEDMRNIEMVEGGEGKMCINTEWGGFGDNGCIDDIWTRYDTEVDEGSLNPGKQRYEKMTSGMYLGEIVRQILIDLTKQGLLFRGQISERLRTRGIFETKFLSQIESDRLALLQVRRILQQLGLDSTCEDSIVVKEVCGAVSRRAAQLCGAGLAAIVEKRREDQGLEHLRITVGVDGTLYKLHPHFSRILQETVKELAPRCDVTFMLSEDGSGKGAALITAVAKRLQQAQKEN
Chain of Hexokinase-1 (P19367 whole entry, the tested form may be a part): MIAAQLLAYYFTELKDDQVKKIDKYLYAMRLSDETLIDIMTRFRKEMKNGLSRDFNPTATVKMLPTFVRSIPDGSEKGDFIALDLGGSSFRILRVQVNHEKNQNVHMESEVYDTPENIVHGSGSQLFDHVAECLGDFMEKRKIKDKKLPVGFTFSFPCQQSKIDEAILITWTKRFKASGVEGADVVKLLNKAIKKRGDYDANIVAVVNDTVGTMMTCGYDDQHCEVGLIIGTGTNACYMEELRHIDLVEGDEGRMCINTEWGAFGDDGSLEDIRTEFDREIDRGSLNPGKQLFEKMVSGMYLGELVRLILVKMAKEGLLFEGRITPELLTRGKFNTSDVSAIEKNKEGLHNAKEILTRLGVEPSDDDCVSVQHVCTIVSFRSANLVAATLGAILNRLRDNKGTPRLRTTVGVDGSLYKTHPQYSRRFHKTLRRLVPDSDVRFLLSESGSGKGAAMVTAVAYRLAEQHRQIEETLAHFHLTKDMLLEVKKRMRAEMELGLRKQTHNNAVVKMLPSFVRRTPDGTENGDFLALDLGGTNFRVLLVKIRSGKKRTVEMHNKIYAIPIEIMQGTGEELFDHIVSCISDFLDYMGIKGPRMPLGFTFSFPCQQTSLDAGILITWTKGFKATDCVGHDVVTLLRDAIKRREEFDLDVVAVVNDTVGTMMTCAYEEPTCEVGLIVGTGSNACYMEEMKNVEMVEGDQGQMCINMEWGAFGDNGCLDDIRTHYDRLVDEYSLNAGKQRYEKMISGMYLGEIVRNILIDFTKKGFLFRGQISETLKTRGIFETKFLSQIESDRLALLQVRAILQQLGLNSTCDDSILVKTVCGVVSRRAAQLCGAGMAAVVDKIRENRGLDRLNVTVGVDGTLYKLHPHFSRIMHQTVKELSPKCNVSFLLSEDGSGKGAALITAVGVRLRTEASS
T6 sequence (P49327 whole entry): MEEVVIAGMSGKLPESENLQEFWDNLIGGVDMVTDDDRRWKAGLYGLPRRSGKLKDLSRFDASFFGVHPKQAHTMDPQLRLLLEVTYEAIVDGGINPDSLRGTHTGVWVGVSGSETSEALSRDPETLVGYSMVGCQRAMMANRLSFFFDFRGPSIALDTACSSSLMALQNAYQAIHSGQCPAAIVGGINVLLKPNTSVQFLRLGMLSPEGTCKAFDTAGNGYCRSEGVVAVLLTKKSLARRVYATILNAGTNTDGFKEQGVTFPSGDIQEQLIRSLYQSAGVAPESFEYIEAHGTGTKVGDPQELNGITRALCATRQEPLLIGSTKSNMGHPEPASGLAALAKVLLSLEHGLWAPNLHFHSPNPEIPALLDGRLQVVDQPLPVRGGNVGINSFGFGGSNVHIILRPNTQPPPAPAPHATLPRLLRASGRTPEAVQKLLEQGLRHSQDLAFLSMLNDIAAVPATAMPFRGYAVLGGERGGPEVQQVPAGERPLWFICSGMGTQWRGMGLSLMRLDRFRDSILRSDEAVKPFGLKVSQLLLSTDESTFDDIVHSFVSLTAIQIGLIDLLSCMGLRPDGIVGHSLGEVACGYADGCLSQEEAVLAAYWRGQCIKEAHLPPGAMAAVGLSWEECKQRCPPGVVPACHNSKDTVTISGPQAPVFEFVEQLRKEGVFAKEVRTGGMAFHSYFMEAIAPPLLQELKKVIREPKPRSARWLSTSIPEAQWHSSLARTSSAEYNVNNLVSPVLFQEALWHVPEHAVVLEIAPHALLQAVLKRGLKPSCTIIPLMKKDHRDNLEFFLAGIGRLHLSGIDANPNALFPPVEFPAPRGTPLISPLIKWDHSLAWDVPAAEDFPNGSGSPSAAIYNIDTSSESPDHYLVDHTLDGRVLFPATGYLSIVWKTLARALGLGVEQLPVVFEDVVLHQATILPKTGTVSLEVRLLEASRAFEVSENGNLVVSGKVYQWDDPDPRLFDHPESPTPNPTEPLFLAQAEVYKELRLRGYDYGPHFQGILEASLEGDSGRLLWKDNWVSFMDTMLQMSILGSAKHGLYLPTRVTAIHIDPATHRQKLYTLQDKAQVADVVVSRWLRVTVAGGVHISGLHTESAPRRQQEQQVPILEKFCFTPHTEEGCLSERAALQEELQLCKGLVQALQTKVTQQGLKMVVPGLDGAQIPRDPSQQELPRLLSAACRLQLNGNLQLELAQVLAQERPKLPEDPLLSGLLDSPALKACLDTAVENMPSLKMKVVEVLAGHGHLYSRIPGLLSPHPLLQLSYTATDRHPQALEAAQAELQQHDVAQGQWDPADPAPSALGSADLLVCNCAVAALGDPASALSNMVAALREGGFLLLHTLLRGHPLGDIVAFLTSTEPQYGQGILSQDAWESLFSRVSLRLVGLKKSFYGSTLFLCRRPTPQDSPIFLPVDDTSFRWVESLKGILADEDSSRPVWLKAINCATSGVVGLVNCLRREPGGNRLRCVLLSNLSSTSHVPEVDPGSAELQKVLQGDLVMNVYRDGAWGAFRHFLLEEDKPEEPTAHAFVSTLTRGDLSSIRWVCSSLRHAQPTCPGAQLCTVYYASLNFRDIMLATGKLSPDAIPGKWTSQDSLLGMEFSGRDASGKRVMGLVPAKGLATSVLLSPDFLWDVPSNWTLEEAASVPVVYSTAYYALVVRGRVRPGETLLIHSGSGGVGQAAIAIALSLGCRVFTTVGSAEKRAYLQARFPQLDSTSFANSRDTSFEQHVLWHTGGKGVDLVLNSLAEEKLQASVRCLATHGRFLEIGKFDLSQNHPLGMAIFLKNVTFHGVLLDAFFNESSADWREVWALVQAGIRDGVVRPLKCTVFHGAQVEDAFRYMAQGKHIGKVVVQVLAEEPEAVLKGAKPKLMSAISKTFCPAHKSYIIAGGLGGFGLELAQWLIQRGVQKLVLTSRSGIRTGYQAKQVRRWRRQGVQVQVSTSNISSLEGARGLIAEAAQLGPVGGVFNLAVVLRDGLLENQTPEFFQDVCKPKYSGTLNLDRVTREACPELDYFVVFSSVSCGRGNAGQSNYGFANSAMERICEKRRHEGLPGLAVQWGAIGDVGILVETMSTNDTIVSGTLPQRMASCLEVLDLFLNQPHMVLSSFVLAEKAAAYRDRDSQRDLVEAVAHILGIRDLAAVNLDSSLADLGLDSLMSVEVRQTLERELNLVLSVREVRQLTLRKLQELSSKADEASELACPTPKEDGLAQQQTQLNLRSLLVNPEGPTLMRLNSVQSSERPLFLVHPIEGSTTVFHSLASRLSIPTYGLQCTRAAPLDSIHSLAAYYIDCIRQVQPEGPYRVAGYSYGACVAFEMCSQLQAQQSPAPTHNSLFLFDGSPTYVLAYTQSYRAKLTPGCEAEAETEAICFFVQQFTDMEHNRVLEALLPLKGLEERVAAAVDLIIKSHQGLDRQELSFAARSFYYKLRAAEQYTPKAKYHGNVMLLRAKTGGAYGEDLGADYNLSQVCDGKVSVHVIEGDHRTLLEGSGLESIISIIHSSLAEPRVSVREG
Chain of Cytochrome P450 3A4 (P08684 whole entry, the tested form may be a part): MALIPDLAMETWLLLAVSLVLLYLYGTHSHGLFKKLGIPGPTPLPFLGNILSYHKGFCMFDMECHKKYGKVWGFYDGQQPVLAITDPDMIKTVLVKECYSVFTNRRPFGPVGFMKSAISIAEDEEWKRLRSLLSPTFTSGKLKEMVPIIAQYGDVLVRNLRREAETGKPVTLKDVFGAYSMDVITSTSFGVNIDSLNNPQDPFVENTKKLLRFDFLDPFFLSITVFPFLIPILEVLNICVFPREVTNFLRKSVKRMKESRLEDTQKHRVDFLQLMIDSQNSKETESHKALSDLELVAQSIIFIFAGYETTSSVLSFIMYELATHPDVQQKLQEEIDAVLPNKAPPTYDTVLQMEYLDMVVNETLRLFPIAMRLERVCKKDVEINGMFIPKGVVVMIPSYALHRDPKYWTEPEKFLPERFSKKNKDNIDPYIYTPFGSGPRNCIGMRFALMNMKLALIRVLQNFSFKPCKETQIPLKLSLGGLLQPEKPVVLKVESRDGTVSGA

SMILES: C[C@]12CC[C@@H](O)CC1CC[C@@H]1[C@@H]2CC[C@]2(C)C(=O)CC[C@@H]12 (some centres not stated)
- AC50 [1]: 25.1 µM (inconclusive)

SMILES: Cc1ccc2nc(N3CCOCC3)c(C=O)cc2c1
- IC50 (HEK293): > 67.5 µM (inactive)
- IC50 [2]: > 67.5 µM (inactive)

SMILES: Cc1nc(C(=O)Nc2ccccc2)sc1C(=O)Nc1ccccc1
- AC50 (HeLa): 58.6 µM (active)

SMILES: CN1CCN(CCNC(=O)c2cn(Cc3ccccc3F)nn2)CC1
- IC50 (Coagulation factor XII): > 50 µM (inactive)

SMILES: CN(C)S(=O)(=O)Oc1ccsc1C(=O)Nc1ccc(Cl)c(Cl)c1
- IC50 (Coagulation factor XII): > 50 µM (inactive)

SMILES: CCC(c1nnnn1Cc1ccccc1)N(Cc1cc2cc(OC)ccc2[nH]c1=O)CC1CCCO1 (configuration not stated)
- EC50 [3]: > 100 µM (inactive)

SMILES: COc1cccc(C(=O)NCCN2CCN(c3ccc(Cl)cc3)CC2)c1
- AC50 (Cytochrome P450 2D6): 31.6 µM (inconclusive)
- AC50 (Cytochrome P450 1A2): 12.6 µM (inconclusive)
- AC50 (Cytochrome P450 3A4): 15.8 µM (inconclusive)
- AC50 [1]: 1 µM (inconclusive)

SMILES: COc1ccc(S(=O)(=O)N2CCN(C(=O)c3ccc(O)nn3)CC2)cc1OC
- IC50 (HEK293): > 67.5 µM (inactive)
- IC50 [2]: > 67.5 µM (inactive)

SMILES: Cc1cccc(/C=C\c2nc3ccccc3c(=O)n2Cc2ccccc2)c1
- IC50 (Hexokinase-1): > 80 µM (inactive)
- IC50 (Hexokinase HKDC1): > 80 µM (inactive)

SMILES: CC1CCCCN1S(=O)(=O)c1ccc(C(=O)N(CCCN(C)C)c2nc3ccc(Br)cc3s2)cc1 (configuration not stated)
- EC50 [4]: 4.73 µM (active)
- EC50 [3]: > 100 µM (inactive)

SMILES: N#Cc1ccc(CSc2nnc(NC(=O)c3ccco3)s2)cc1
- IC50 (Hexokinase-1): > 80 µM (inactive)
- IC50 (Hexokinase HKDC1): > 80 µM (inactive)

SMILES: O=S(=O)(c1ccccc1)n1ccc(-c2cnc(-c3ccccc3)s2)n1
- AC50 (HeLa): 101 µM (active)
- IC50 (Fatty acid synthase [5]): 7.41 µM (active)
- IC50 (Fatty acid synthase [6]): 6.85 µM (active)
